Experimental data: ChEMBL document CHEMBL6153041, “Discovery of High-Affinity SMARCA2/4 Bromodomain Ligands and Development of Potent and Exceptionally Selective SMARCA2 PROTAC Degraders” (J Med Chem, 2025)
pKd: −log10 of the molar value.

Tests used:
[1] = target: SWI/SNF-related matrix-associated actin-dependent regulator of chromatin subfamily A member 4 (Homo sapiens, UniProt P51532); assay: Binding affinity to SMARCA4 (unknown origin) assessed as dissociation constant
[2] = target: T1, von Hippel-Lindau disease tumor suppressor/SWI/SNF-related matrix-associated actin-dependent regulator of chromatin subfamily A member 4 (Homo sapiens, UniProt P51532+P40337); assay: PROTAC activity at VHL/SMARCA4 in human MV4-11 cells assessed as degradation; format: cell-based
[3] = target: T1, von Hippel-Lindau disease tumor suppressor/SWI/SNF-related matrix-associated actin-dependent regulator of chromatin subfamily A member 4; assay: PROTAC activity at VHL/SMARCA4 in human MV4-11 cells assessed as maximal degradation relative to control; format: cell-based
[4] = target: von Hippel-Lindau disease tumor suppressor/SWI/SNF-related matrix-associated actin-dependent regulator of chromatin subfamily A member 2 (Homo sapiens, UniProt P51531+P40337); assay: PROTAC activity at VHL/SMARCA2 in human MV4-11 cells assessed as maximal degradation relative to control; format: cell-based
Chain of von Hippel-Lindau disease tumor suppressor/SWI/SNF-related matrix-associated actin-dependent regulator of chromatin subfamily A member 2 (P51531 whole entry): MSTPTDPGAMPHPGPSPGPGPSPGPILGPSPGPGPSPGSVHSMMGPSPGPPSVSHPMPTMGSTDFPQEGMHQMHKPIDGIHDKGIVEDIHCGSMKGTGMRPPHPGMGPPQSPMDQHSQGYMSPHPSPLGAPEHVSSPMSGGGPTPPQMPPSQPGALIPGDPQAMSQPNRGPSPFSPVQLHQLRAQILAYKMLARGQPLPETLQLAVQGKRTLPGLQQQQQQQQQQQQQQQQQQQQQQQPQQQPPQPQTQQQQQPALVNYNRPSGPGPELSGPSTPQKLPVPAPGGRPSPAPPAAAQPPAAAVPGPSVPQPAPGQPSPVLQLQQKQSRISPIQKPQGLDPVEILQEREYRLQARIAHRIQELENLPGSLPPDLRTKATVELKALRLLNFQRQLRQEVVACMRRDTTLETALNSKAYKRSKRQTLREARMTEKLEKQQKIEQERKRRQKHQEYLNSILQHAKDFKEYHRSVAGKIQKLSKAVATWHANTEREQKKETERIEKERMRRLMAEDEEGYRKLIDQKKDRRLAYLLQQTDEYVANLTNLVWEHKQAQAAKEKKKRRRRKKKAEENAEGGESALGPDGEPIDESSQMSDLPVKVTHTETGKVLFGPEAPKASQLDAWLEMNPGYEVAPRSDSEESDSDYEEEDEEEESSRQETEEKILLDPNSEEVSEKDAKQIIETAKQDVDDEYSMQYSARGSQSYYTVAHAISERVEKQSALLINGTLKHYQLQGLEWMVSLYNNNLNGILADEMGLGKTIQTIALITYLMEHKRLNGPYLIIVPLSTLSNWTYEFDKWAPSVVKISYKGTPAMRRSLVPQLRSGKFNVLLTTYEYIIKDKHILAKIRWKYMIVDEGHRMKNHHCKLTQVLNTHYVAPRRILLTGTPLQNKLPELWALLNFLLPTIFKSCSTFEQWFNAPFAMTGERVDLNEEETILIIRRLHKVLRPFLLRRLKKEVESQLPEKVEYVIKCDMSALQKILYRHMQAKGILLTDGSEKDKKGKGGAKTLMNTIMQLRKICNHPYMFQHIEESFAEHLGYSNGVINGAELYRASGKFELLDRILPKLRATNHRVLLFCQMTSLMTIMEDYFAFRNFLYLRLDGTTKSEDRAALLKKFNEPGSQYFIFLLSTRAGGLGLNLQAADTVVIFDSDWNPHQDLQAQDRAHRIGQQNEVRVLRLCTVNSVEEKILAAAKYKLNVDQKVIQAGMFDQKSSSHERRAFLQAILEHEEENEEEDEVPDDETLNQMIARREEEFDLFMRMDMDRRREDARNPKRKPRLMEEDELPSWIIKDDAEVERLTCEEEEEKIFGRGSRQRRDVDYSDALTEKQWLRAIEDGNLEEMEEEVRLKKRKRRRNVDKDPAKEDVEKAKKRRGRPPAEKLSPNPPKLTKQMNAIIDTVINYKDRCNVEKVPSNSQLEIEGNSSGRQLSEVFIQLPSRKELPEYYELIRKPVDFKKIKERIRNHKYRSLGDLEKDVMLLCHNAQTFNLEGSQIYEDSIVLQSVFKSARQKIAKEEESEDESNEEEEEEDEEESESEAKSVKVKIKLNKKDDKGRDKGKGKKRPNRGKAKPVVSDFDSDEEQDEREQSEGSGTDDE
Chain of von Hippel-Lindau disease tumor suppressor/SWI/SNF-related matrix-associated actin-dependent regulator of chromatin subfamily A member 2 (P40337 whole entry): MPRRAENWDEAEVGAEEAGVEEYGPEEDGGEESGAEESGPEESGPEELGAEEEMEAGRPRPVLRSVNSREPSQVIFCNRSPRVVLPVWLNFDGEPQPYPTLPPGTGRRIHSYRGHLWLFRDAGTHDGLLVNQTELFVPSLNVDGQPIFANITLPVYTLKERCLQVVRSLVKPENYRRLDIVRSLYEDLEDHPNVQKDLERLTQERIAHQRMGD

T1 sequence (P40337 whole entry, looked up): as the sequence (P40337 whole entry) above
T1 sequence (P51532 whole entry, looked up): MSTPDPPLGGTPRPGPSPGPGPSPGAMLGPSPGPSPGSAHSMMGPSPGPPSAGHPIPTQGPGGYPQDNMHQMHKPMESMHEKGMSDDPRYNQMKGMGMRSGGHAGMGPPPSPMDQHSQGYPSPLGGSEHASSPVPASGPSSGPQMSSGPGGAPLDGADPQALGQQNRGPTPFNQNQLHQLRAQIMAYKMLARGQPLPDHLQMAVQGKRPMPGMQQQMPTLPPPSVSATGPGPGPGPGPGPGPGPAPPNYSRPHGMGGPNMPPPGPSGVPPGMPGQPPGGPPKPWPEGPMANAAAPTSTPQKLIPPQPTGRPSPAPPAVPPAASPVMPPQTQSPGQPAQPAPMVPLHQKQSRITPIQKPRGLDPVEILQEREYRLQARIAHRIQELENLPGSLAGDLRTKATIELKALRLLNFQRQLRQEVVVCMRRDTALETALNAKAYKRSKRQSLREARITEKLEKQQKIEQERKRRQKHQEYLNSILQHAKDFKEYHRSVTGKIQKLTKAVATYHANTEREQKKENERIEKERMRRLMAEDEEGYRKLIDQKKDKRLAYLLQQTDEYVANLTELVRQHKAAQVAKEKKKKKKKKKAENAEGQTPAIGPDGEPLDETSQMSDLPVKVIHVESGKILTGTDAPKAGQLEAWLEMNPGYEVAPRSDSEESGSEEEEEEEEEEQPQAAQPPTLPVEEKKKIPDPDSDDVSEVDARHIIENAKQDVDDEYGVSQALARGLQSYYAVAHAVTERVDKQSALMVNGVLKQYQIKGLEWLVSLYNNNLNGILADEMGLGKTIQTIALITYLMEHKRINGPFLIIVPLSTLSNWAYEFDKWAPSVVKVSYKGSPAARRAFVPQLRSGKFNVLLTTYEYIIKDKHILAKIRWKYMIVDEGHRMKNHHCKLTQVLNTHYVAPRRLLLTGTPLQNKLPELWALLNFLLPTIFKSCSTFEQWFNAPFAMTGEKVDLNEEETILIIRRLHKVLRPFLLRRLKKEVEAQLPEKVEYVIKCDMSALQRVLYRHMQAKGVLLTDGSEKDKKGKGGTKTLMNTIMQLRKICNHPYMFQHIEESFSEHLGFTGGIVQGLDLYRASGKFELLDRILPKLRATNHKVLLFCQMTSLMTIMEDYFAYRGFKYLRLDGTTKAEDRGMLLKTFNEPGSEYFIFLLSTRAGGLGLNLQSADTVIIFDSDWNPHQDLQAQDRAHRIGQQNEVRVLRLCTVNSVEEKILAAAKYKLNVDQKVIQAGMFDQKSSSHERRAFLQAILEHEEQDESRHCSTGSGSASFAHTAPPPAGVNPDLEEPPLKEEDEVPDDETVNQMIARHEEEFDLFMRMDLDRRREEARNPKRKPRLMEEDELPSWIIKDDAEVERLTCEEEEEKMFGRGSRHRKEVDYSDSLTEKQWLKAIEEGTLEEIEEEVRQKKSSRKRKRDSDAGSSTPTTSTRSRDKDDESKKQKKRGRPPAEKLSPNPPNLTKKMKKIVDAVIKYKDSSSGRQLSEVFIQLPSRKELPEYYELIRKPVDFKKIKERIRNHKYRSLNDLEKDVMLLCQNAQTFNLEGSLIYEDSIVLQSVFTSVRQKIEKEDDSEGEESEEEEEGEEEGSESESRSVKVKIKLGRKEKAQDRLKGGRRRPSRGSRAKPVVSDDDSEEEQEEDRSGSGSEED
Chain of SWI/SNF-related matrix-associated actin-dependent regulator of chromatin subfamily A member 4 (P51532 whole entry): as the sequence (P51532 whole entry, looked up) above

Structure (SMILES)	pKd [1]	Emax [2] [%]	Emax [3] [%]	DC50 [4] [nM]
Cn1cc(-c2cc(-c3ccccc3O)nnc2N)cn1	7.89	–	–	–
Cc1ncsc1-c1ccc(CNC(=O)[C@@H]2C[C@@H](O)CN2C(=O)[C@@H](NC(=O)C2(F)CC2)C(C)(C)C)c(OCCOc2ccc(CN3CCN(c4cc(-c5ccccc5O)nnc4N)CC3)cc2)c1	–	> 95	> 95	11
